# Data as given in ChEMBL document CHEMBL4346657, “Anticancer activity, dual prooxidant/antioxidant effect and apoptosis induction profile of new bichalcophene-5-carboxamidines” (Eur J Med Chem, 2019).
# Calls of active or inactive are those of the source. No cut-off for these calls is given here.
# What was measured:
# [1] = test system: WI-38; test: Cytotoxicity activity against human WI38 cells assessed as reduction in cell viability measured after 48 hrs by MTT assay; assay type: cell-based; details: WI-38, 48 h
# [2] = (§1) Selectivity index, ratio of IC50 for human WI38 cells to GI50 for human NCI60 cells
# [3] = test system: K562; test: Antiproliferative activity against human K562 cells assessed as growth inhibition after 48 hrs by sulforhodamine B assay; assay type: functional, cell-based; details: K562, 48 h
# [4] = Haemolytic activity in human erythrocytes assessed as induction of hemolysis at 10 mM after 30 mins relative to H202; assay type: cell-based, Erythrocyte; details: read-out: Activity
# [5] = Haemolytic activity in human erythrocytes assessed as induction of hemolysis at 5 mM after 30 mins relative to H202; assay type: cell-based, Erythrocyte; details: read-out: Activity
# [6] = Haemolytic activity in human erythrocytes assessed as induction of hemolysis at 2.5 mM after 30 mins relative to H202; assay type: cell-based, Erythrocyte; details: erythrocytes, read-out: Activity
# [7] = (§2) Haemolytic activity in human erythrocytes assessed as induction of hemolysis at 1.25 mM after 30 mins relative to H202; assay type: cell-based, Erythrocyte; details: erythrocytes, read-out: Activity
# [8] = (§3) Haemolytic activity in human erythrocytes assessed as induction of hemolysis at 0.625 mM after 30 mins relative to H202; assay type: cell-based, Erythrocyte; details: erythrocytes, read-out: Activity
# [9] = Antioxidant activity assessed as DPPH radical scavenging activity incubated in dark for 30 mins by spectrophotometric method relative to control; assay type: functional; set-up: concentration or dose not given beside the values
# [10] = Antioxidant activity assessed as DPPH radical scavenging activity incubated in dark for 30 mins by spectrophotometric method relative to ascorbic acid; assay type: functional
# [11] = Antioxidant activity assessed as ABTS radical scavenging activity by spectrophotometric analysis relative to control; assay type: functional; set-up: concentration or dose not given beside the values; details: dose or concentration not given here
# [12] = Antioxidant activity assessed as ABTS radical scavenging activity by spectrophotometric method relative to ascorbic acid; assay type: functional
# [13] = Antioxidant activity assessed as hydroxyl radical scavenging activity after 1 hr by salicylic acid-based Fenton reaction assay; assay type: functional
# [14] = Pro-oxidant activity assessed as increase in bleomycin-Fe2+ induced calf thymus DNA damage at 2 mM after 1 hr by thiobarbituric acid based absorbance analysis
# [15] = test system: HCT-116; test: Induction of apoptosis in human HCT116 cells assessed as increase in caspase 3 mRNA expression at 100 nM after 6 hrs hrs by SYBR green dye-based qRT-PCR analysis relative to control; assay type: functional
# [16] = test system: HCT-116; test: Induction of apoptosis in human HCT116 cells assessed as increase in caspase 9 mRNA expression at 100 nM after 6 hrs hrs by SYBR green dye-based qRT-PCR analysis relative to control; assay type: functional
# [17] = test system: HCT-116; test: Induction of apoptosis in human HCT116 cells assessed as increase in p53 mRNA expression at 100 nM after 6 hrs hrs by SYBR green dye-based qRT-PCR analysis relative to control; assay type: functional
# [18] = test system: HCT-116; test: […] in CDK1 mRNA expression in human HCT116 cells at 100 nM after 6 hrs hrs by SYBR green dye-based qRT-PCR analysis relative to control; assay type: functional
# [19] = test system: Erythrocyte; test: as §2; assay type: cell-based; details: erythrocyte, 0.5 h, 1250 µM
# [20] = test system: Erythrocyte; test: as §3; assay type: cell-based; details: erythrocyte, 0.5 h, 625 µM
# [21] = species on record: Homo sapiens; test: as §1
# [22] = test system: HCT-116; test: Reduction in CDK1 mRNA expression in human HCT116 cells at 100 nM after 6 hrs hrs by SYBR green dye-based qRT-PCR analysis relative to control; assay type: functional; details: HCT-116, 6 h
compound,measurement,setting,value
COc1ccc(-c2ccc(-c3ccc(C(=N)N)s3)s2)cc1,IC50,[1],12.9 µM
same,Selectivity Index,[2],43
same,IC50,[3]; read-out: IC50,0.18 µM
same,IC50,[3]; read-out: pIC50 (converted),19500 µM
same,"hemolysis at 0.5 h, 10000 µM",[4],92.7%
same,"hemolysis at 0.5 h, 5000 µM",[5],63.7%
same,"hemolysis at 0.5 h, 2500 µM",[6],41%
same,"hemolysis at 0.5 h, 1250 µM",[7],17.3%
same,"hemolysis at 0.5 h, 625 µM",[8],4%
same,inhibition,[9],51.9%
same,fold change (FC),[10],0.6
same,inhibition,[11],59.2%
same,fold change (FC),[12],0.6
same,Activity,[13],Active
same,Activity,[14],Active
same,fold change (FC),[15],2.51
same,fold change (FC),[16],2.38
same,fold change (FC),[17],1.06
same,fold change (FC),[18],0.91
O=C1O[C@H]([C@@H](O)CO)C(O)=C1O [ASCORBIC ACID],"hemolysis at 0.5 h, 10000 µM",[4],16.3%
same,"hemolysis at 0.5 h, 5000 µM",[5],8%
same,"hemolysis at 0.5 h, 2500 µM",[6],4%
same,Activity,[19],Non-Toxic
same,Activity,[20],Non-Toxic
same,fold change (FC),[10],1
same,fold change (FC),[12],1
COc1cccc(-c2ccc(-c3ccc(C(=N)N)s3)s2)c1,IC50,[1],77.2 µM
same,Selectivity Index,[2],148.4
same,IC50,[3]; read-out: IC50,0.18 µM
same,IC50,[3]; read-out: pIC50 (converted),19500 µM
same,"hemolysis at 0.5 h, 10000 µM",[4],79%
same,"hemolysis at 0.5 h, 5000 µM",[5],39%
same,"hemolysis at 0.5 h, 2500 µM",[6],16.1%
same,"hemolysis at 0.5 h, 1250 µM",[7],3.1%
same,Activity,[20],Non-Toxic
same,inhibition,[9],47.5%
same,fold change (FC),[10],0.5
same,inhibition,[11],58.2%
same,fold change (FC),[12],0.6
same,Activity,[13],Active
same,Activity,[14],Active
same,fold change (FC),[15],3.71
same,fold change (FC),[16],1.01
same,fold change (FC),[17],0.89
same,fold change (FC),[18],0.93
O=c1[nH]cc(F)c(=O)[nH]1 [FLUOROURACIL],IC50,[1],8.4 µM
same,Selectivity Index,[21],inactive
same,fold change (FC),[15],3.92
same,fold change (FC),[16],4.53
same,fold change (FC),[17],1.48
same,fold change (FC),[18],0.48
same,inhibition at 0.1 µM,[22],50 to 52%
N=C(N)c1ccc(-c2ccc(-c3ccccc3)s2)s1,IC50,[1],49.1 µM
same,Selectivity Index,[2],38.3
same,IC50,[3]; read-out: IC50,0.24 µM
same,IC50,[3]; read-out: pIC50 (converted),38000 µM
same,"hemolysis at 0.5 h, 10000 µM",[4],85.1%
same,"hemolysis at 0.5 h, 5000 µM",[5],56.7%
same,"hemolysis at 0.5 h, 2500 µM",[6],15.3%
same,Activity,[19],Non-Toxic
same,Activity,[20],Non-Toxic
same,inhibition,[9],53%
same,fold change (FC),[10],0.6
same,inhibition,[11],61.7%
same,fold change (FC),[12],0.7
same,Activity,[13],Active
same,Activity,[14],Active
same,fold change (FC),[15],2.39
same,fold change (FC),[16],2.47
same,fold change (FC),[17],1.1
same,fold change (FC),[18],0.88
